Data on 1 compound can be found in PMC2923838 (Chemical research in toxicology, 2009).

The test has as its target D-amino acid oxidase (DAAO) (Sus scrofa, UniProt P00371). In words: […] benzoate with porcine DAAO and D-Trp in […] cells. The format is cell-based. The conditions noted are these: read-out: % attenuation at 20 mM.

Sequence of D-amino acid oxidase (DAAO) (P00371 whole entry): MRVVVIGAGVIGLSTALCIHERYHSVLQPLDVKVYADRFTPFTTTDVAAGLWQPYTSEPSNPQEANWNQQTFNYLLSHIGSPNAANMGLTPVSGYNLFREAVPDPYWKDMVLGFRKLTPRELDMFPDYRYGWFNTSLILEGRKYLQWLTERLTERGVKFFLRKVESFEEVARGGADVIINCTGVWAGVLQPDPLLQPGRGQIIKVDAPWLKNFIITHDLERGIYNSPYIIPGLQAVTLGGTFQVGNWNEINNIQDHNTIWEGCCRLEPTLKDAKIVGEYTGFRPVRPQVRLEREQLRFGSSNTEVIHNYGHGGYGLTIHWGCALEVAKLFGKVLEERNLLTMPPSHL

As for `O=C(O)c1ccccc1` [sodium benzoate], the inhibition at 20000 µM is 76%.
